Experimental data reported in PubChem BioAssay (NCI).
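How tested: cells in 96-well plates exposed to compound for 48 hours at five concentrations. Abbreviation: GI50, concentration required for 50% inhibition of growth. The concentration for full growth arrest is given as TGI.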

What was measured:
Test in all cases: NCI-60 cell line screen, 48 h
[1] = test system: NCI/ADR-RES ovarian
[2] = test system: HT29 colon
[3] = test system: SK-MEL-5 melanoma
[4] = test system: CCRF-CEM leukemia
[5] = test system: OVCAR-4 ovarian
[6] = test system: KM12 colon
[7] = test system: SNB-75 CNS
[8] = test system: NCI-H226 lung
[9] = test system: XF 498 CNS
[10] = test system: DMS 114 small cell lung

Row | Structure (SMILES) | GI50 [1] [µM] | TGI [1] [µM] | GI50 [2] [µM] | TGI [2] [µM] | GI50 [3] [µM] | TGI [3] [µM] | GI50 [4] [µM] | TGI [4] [µM] | GI50 [5] [µM] | TGI [5] [µM] | GI50 [6] [µM] | TGI [6] [µM] | GI50 [7] [µM] | TGI [7] [µM] | GI50 [8] [µM] | TGI [8] [µM] | TGI [9] [µM] | TGI [10] [µM]
1 | CCN(CC)CC(O)c1cc(-c2ccc(Cl)cc2)nc2cc(Cl)ccc12 (configuration not stated) | 2.25 | 6.04 | 1.71 | 3.66 | 1.61 | 2.99 | 2.52 | 5.56 | 3.3 | 10.6 | 1.7 | 3.18 | 1.69 | 7.14 | 2.21 | 7.15 |  | 
2 | c1ccc(N2N=NC3C4CC(C5c6ccccc6C45)C32)cc1 (configuration not stated) |  |  |  | 40.3 |  | 38.3 |  | > 100 |  | > 100 |  | > 100 |  | > 100 |  | 96.3 | 38.5 | 47.5
3 | Cc1cc(C)c(C2=NO[C@@H]3C(=O)N(c4ccc(Cc5ccc(N6C(=O)[C@H]7C(c8c(C)cc(C)cc8C)=NO[C@H]7C6=O)cc5)cc4)C(=O)[C@H]23)c(C)c1 |  |  |  | > 100 |  | > 100 |  | > 100 |  | > 100 |  | > 100 |  | > 100 |  | > 100 | > 100 | > 100
4 | O=C(Nc1ccc(Cl)cc1)c1cc2ccccc2cc1OP(=O)(O)O | 3.51 | > 100 | 28.9 | > 100 | 2.89 | 8.83 | 2.82 | > 100 | 4.88 | > 100 | 3.14 | 13.7 | 2.03 | 25.2 | 2.97 | 16.9 |  | 
5 | O=C(O)c1ccccc1C1c2ccc(Cl)cc2Oc2cc(Cl)ccc21 |  |  |  | > 100 |  | > 100 |  | > 100 |  | > 100 |  | > 100 |  | > 100 |  |  |  | > 100
6 | CN(CC1NCCCC1O)C12CC3CC(CC(C3)C1)C2 (configuration not stated) |  |  |  | > 100 |  |  |  | > 100 |  | > 100 |  | > 100 |  |  |  | > 100 | > 100 | > 100
7 | COc1cc(=O)oc(/C=C/CO)c1C |  |  |  | > 100 |  | > 100 |  | > 100 |  | > 100 |  | > 100 |  | > 100 |  | > 100 | > 100 | > 100
8 | CCOC(=O)Cn1c(=O)[nH]c(=O)c2[nH]cnc21 |  |  |  | > 100 |  | > 100 |  | > 100 |  | > 100 |  | > 100 |  | > 100 |  |  |  | > 100
9 | O=C(NCCCl)NCc1ccccc1 |  | > 100 |  | > 100 |  | > 100 |  | > 100 |  | > 100 |  | > 100 |  | > 100 |  | > 100 |  | 
10 | C=CCn1c(=O)c(C(=O)NC(=O)OCC)cn(C2CCCCC2)c1=O |  |  |  | > 100 |  | > 100 |  | > 100 |  | > 100 |  | > 100 |  | > 100 |  | > 100 | > 100 | > 100
